{"source": "paper PMC5762315", "about": "“Inhibition of polo-like kinase 4 (PLK4): a new therapeutic option for rhabdoid tumors and pediatric medulloblastoma” (Oncotarget, 2017)", "key": {"BT-12 AT/RT cells": {"system": "BT-12 AT/RT cells", "test": "Confluency assay (IncuCyte ZOOM), BT-12", "format": "cell-based, human", "conditions": "increasing concentrations starting at 31.25nM, 48 hours, p-value=0.001", "description": "For further evaluation of the effect of the PLK4 inhibitor over tumor cell proliferation, confluency was measured over a 48 hour period. MON, BT-12, G401 and DAOY cells were plated in 96-well plates with a density of 6 x 10^4 per well. […] Confluency was monitored for 48 hours by taking phase contrast images every 2 hours and measured using an IncuCyte ZOOM system (Essen BioScience, USA). Experiments were performed in triplicates."}, "DAOY cells": {"system": "DAOY cells", "test": "Colony formation assay, DAOY", "format": "cell-based, human", "conditions": "50nM", "experimental": "For proliferation assay DAOY was plated with 5 x 10^4 cells per well and D283 was plated with 5 x 10^5 cells per well."}, "MON rhabdoid cells [1]": {"system": "MON rhabdoid cells", "test": "Flow cytometry cell cycle analysis (polyploidy), MON", "format": "cell-based, human", "conditions": "100nM for 3-72 hours", "description": "Cell cycle evaluation was performed by staining the cells with PI (Thermo Fisher Scientific, USA) according to manufacturer’s instructions. […] Data was analyzed using Modfit LT from Verity Software House. Experiments were performed in triplicates."}, "[2]": {"system": "MON, G401, BT-12 and BT-16 rhabdoid cell lines", "test": "Flow cytometry apoptosis (Annexin V / PI)", "format": "cell-based, human", "conditions": "G401, BT-12, BT-16, 100nM for 48 hours", "description": "Live cells were stained with Annexin V as an indicator of early apoptosis and Propidium Iodide (PI - Thermo Fisher Scientific, USA) for detection of late apoptosis and necrosis, according to manufacturer’s instructions (Thermo Fisher Scientific, USA). Flow cytometric analysis was performed on a BD Fortessa instrument (BD Biosciences, USA) within an hour of staining. Data was analyzed using Modfit LT from Verity Software House. All experiments were performed in triplicates."}, "various kinases [3]": {"molecular_target": "various kinases (Homo sapiens, UniProt Q9H422)", "test": "biochemical", "format": "biochemical", "conditions": "HIPK3 (YAK1)"}, "various kinases [4]": {"molecular_target": "various kinases (Homo sapiens, UniProt Q8TDC3)", "sequence (Q8TDC3 whole entry)": "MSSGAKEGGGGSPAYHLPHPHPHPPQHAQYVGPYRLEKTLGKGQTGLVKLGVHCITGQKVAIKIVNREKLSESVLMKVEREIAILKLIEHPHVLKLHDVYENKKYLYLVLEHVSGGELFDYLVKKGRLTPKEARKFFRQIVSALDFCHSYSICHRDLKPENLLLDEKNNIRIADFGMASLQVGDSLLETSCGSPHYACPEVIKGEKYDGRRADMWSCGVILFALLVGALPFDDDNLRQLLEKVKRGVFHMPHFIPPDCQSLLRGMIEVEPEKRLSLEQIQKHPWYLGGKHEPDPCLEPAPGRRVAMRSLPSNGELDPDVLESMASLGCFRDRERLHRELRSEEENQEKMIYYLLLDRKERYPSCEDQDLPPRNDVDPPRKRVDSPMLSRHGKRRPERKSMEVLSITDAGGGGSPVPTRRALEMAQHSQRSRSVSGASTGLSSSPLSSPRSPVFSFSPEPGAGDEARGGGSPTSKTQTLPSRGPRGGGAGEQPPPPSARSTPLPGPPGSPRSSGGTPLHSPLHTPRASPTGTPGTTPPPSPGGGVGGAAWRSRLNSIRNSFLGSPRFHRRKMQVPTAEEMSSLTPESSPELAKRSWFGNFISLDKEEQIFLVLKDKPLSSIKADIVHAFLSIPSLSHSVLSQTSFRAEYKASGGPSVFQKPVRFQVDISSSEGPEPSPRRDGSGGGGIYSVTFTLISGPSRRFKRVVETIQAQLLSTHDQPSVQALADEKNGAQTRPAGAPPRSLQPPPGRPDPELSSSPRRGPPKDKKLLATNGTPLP", "test": "biochemical", "format": "biochemical", "conditions": "BRSK1 (SAD1)"}, "various kinases [5]": {"molecular_target": "various kinases (Homo sapiens, UniProt P49759)", "test": "biochemical", "format": "biochemical", "conditions": "CLK1"}, "various kinases [6]": {"molecular_target": "various kinases (Homo sapiens, UniProt P10721)", "sequence (P10721 26-976)": "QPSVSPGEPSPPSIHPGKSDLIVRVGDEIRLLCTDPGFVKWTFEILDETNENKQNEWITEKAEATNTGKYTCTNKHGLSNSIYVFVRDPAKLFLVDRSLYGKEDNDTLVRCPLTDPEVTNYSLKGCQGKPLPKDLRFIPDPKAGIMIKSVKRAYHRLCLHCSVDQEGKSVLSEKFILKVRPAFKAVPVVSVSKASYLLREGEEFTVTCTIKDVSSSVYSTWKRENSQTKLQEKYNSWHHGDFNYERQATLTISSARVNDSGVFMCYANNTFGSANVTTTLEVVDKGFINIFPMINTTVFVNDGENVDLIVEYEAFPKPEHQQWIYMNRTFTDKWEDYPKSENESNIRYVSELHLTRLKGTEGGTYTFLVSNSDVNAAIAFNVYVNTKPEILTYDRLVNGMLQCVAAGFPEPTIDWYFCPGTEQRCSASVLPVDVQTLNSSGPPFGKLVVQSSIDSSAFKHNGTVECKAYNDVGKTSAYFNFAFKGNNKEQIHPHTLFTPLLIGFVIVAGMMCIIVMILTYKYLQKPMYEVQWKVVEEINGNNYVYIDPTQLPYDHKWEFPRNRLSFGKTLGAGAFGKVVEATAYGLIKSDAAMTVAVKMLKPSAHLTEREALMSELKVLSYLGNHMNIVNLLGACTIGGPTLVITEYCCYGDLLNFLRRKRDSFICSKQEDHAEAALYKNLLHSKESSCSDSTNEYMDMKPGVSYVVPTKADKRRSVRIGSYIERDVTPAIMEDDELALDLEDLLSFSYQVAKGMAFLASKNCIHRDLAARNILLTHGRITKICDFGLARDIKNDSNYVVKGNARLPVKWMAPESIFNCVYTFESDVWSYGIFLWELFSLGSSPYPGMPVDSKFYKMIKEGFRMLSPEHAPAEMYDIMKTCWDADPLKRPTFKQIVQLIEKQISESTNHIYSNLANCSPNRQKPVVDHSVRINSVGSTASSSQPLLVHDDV", "test": "biochemical", "format": "biochemical", "conditions": "KIT"}, "various kinases [7]": {"molecular_target": "various kinases (Homo sapiens, UniProt P22607, K650E)", "test": "biochemical", "format": "biochemical", "conditions": "FGFR3 K650E"}, "various kinases [8]": {"molecular_target": "various kinases (Homo sapiens, UniProt P29323)", "test": "biochemical", "format": "biochemical", "conditions": "EPHB2"}, "various kinases [9]": {"molecular_target": "various kinases (Homo sapiens, UniProt P53779)", "test": "biochemical", "format": "biochemical", "conditions": "MAPK10 (JNK3)"}, "various kinases [10]": {"molecular_target": "various kinases (Homo sapiens, UniProt P51812)", "sequence (P51812 whole entry)": "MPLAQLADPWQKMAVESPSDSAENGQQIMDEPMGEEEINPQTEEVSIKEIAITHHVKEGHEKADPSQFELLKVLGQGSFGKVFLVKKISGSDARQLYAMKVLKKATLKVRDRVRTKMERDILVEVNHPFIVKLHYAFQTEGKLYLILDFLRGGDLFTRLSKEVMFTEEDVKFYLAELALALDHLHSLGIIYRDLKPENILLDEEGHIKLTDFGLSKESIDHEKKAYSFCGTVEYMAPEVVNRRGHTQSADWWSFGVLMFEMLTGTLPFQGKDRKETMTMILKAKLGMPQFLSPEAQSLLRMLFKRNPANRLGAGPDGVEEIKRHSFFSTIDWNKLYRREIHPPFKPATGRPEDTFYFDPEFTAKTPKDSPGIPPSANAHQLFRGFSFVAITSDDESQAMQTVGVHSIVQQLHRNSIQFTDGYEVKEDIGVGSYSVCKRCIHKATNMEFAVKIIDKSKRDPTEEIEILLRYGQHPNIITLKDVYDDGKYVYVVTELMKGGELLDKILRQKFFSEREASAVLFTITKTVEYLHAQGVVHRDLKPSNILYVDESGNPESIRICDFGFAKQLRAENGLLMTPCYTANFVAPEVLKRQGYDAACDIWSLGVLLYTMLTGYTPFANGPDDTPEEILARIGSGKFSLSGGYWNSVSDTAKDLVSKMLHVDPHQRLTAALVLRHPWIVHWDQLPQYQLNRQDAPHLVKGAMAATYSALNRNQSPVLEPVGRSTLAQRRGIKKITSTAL", "test": "biochemical", "format": "biochemical", "conditions": "kinase RPS6KA3 (RSK2); ZLYTE"}, "TEK [11]": {"molecular_target": "TEK (Homo sapiens, UniProt Q02763, Y1108F)", "sequence (Q02763 771-1124 Y1108F)": "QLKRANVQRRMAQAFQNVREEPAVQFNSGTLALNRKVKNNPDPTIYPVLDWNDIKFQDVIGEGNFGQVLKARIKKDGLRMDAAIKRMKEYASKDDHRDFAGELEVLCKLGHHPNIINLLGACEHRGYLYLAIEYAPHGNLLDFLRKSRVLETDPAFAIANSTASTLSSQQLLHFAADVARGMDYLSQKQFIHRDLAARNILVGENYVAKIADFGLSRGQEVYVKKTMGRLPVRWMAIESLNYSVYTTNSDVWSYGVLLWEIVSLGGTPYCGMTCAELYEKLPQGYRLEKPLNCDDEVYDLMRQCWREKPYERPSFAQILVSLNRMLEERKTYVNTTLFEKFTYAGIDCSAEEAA", "test": "Kinase activity screening (SelectScreen), TEK", "format": "biochemical"}, "TEK [12]": {"molecular_target": "TEK (Homo sapiens, UniProt Q02763, Y897S)", "sequence (Q02763 771-1124 Y897S)": "as the sequence (Q02763 771-1124 Y1108F) above, with Y127S, F338Y counted along it", "test": "Kinase activity screening (SelectScreen), TEK", "format": "biochemical", "conditions": "kinase TEK (TIE2) Y897S; ZLYTE"}, "TEK [13]": {"molecular_target": "TEK (Homo sapiens, UniProt Q02763, R849W)", "sequence (Q02763 771-1124 R849W)": "as the sequence (Q02763 771-1124 Y1108F) above, with R79W, F338Y counted along it", "test": "Kinase activity screening (SelectScreen), TEK", "format": "biochemical", "conditions": "kinase TEK (TIE2) R849W; LanthaScreen Binding"}, "TEK [14]": {"system": "TEK", "test": "Kinase activity screening (SelectScreen), TEK", "format": "biochemical", "conditions": "kinase TEK (Tie2); ZLYTE"}, "MON rhabdoid cells [15]": {"system": "MON rhabdoid cells", "test": "Immunofluorescence for gamma-tubulin (centriole number), MON", "format": "cell-based, human", "conditions": "48 hours", "description": "(§1) The cells were then blocked in blocking buffer (5% BSA (Jackson Immuno Research Laboratories Inc., USA) in PBST) for 1 hour at RT. The primary antibody ([…] 1:500, Sigma, USA) diluted in 1% BSA in PBST was then added and incubated at 4°C overnight. Then, the cells were washed with 1X PBS thrice. Secondary antibody (Anti-Rabbit IgG (H+L) F (ab’) 2, 1:500, Sigma, USA) diluted in 1% BSA in PBST was added and incubated at RT for 2 hours. Three time washes with 1X PBS were performed. Then, 1mL of DAPI (Thermo Fisher Scientific, USA) in PBS (0.5μl of DAPI in 10 ml PBS) was added to the cells and incubated for 10 min at RT. Finally, 3 time washes with 1X PBS were performed and slides were mounted using Mounting Medium (Thermo Fisher Scientific, USA)."}, "various kinases [16]": {"molecular_target": "various kinases (Homo sapiens, UniProt Q9UM73, C1156Y)", "sequence (Q9UM73 19-1620 C1156Y)": "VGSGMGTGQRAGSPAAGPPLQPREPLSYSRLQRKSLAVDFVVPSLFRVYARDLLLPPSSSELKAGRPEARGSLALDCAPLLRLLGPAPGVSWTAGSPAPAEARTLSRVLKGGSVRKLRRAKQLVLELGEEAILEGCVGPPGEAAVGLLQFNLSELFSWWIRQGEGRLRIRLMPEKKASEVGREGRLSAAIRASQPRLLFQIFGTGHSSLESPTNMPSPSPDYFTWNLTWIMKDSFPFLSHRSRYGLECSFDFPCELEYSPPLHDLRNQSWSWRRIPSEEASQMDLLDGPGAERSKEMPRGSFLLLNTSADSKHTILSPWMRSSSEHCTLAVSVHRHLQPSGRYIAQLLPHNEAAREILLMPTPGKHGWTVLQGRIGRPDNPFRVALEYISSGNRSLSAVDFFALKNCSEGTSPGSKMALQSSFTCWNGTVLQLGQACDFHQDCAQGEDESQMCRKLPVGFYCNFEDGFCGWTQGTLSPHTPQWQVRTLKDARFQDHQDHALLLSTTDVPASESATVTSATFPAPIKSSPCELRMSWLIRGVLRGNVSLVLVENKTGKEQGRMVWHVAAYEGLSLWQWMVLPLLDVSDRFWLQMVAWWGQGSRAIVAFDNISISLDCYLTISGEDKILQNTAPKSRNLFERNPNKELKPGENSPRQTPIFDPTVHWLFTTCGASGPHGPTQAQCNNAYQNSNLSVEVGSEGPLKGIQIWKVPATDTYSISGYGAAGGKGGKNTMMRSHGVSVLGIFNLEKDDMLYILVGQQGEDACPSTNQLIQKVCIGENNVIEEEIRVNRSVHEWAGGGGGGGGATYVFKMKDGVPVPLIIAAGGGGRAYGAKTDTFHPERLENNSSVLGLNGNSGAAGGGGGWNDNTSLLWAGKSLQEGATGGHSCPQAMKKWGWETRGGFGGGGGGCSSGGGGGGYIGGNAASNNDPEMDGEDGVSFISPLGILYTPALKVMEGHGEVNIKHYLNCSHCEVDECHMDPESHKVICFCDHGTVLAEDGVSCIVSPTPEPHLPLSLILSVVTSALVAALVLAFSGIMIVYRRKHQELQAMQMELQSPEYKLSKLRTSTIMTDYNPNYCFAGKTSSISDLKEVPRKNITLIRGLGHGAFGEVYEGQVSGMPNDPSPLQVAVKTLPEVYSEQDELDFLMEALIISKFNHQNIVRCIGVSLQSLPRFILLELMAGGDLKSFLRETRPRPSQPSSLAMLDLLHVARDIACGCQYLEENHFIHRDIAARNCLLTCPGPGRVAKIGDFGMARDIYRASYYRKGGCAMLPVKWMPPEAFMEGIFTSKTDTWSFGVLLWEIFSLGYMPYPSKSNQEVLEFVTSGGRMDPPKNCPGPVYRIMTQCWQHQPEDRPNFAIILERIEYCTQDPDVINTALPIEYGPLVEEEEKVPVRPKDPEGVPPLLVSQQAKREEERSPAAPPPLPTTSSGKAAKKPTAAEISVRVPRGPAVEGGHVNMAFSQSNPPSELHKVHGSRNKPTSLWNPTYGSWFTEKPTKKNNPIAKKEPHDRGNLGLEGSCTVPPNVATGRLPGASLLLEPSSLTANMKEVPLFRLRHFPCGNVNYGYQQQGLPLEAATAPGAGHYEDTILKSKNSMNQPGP", "test": "LanthaScreen Eu Kinase Binding Assay, panel of 486 biochemical kinase assays", "conditions": "ALK C1156Y"}, "various kinases [17]": {"molecular_target": "various kinases (Homo sapiens, UniProt P06493)", "sequence (P06493 whole entry)": "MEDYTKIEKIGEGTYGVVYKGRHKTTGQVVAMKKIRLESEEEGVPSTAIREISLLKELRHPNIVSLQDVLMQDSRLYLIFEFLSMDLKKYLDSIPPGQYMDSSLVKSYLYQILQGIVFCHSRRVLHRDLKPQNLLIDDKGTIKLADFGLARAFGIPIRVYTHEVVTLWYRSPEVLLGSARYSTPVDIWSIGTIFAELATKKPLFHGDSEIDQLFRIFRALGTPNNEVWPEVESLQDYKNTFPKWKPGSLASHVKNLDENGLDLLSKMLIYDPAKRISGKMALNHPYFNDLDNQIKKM", "test": "LanthaScreen Eu Kinase Binding Assay, panel of 486 biochemical kinase assays", "conditions": "CDK1/cyclin A2"}, "various kinases [18]": {"molecular_target": "T1, various kinases (Homo sapiens, UniProt Q9UEE5)", "T1 sequence (Q9UEE5 1-414)": "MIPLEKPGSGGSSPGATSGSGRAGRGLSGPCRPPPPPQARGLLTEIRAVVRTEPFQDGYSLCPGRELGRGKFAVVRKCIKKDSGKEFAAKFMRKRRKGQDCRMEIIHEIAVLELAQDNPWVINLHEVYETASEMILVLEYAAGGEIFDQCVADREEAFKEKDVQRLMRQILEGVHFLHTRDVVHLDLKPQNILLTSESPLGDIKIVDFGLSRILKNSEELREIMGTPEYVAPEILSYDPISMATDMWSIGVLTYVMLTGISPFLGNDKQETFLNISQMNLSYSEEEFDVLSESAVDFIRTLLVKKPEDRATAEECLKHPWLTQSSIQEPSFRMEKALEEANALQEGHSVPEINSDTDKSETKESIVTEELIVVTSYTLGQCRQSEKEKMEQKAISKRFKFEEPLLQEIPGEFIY", "test": "LanthaScreen Eu Kinase Binding Assay, panel of 486 biochemical kinase assays", "conditions": "kinase STK17A (DRAK1); LanthaScreen Binding"}, "various kinases [19]": {"molecular_target": "various kinases (Homo sapiens, UniProt P36507)", "test": "LanthaScreen Eu Kinase Binding Assay, panel of 486 biochemical kinase assays", "conditions": "MAP2K2 (MEK2)"}, "various kinases [20]": {"molecular_target": "various kinases (Homo sapiens, UniProt P00519, H396P)", "test": "LanthaScreen Eu Kinase Binding Assay, panel of 486 biochemical kinase assays", "conditions": "ABL1 H396P"}, "[21]": {"system": "non-neoplastic human fibroblast cells (HFF-SCC058)", "test": "Immunofluorescence for gamma-tubulin (centriole number), fibroblasts", "format": "cell-based", "conditions": "100nM and 500nM", "description": "as §1"}}, "note": "Where “and” joins values, the source holds several entries; their conditions need not be identical. Equal values may be shown once.", "data": [{"smiles": "COc1ccc2c(c1)[C@]1(C[C@H]1c1ccc3c(/C=C/c4ccc(CN5C[C@@H](C)O[C@@H](C)C5)cc4)n[nH]c3c1)C(=O)N2", "note": "[CFI-400945]", "values": [{"measurement": "FC, delay in reaching confluency", "setting": "BT-12 AT/RT cells", "result": 1.89}, {"measurement": "colony formation", "setting": "DAOY cells", "result": "Complete inhibition"}, {"measurement": "polyploidy (cell cycle analysis)", "setting": "MON rhabdoid cells [1]", "result": "time-dependent induction of polyploidy"}, {"measurement": "cell death (apoptosis, flow cytometry) vs control", "setting": "[2]", "result": "significantly higher percentage of cells undergoing cell death"}, {"measurement": "% Inhibition", "setting": "various kinases [3]", "result": "2% and 3%"}, {"measurement": "% Inhibition", "setting": "various kinases [4]", "result": "13% and 7%"}, {"measurement": "% Inhibition", "setting": "various kinases [5]", "result": -1, "unit": "%"}, {"measurement": "% Inhibition", "setting": "various kinases [6]", "result": "9% and 7%"}, {"measurement": "% Inhibition", "setting": "various kinases [7]", "result": "38% and 44%"}, {"measurement": "% Inhibition", "setting": "various kinases [8]", "result": 5, "unit": "%"}, {"measurement": "% Inhibition", "setting": "various kinases [9]", "result": 5, "unit": "%"}, {"measurement": "% Inhibition Average", "setting": "various kinases [10]", "result": 2, "unit": "%"}, {"measurement": "% Inhibition Duplicate #1", "setting": "various kinases [10]", "result": 1, "unit": "%"}, {"measurement": "% Inhibition Duplicate #2", "setting": "various kinases [10]", "result": 2, "unit": "%"}, {"measurement": "IC50", "setting": "TEK [11]", "result": 109, "unit": "nM"}, {"measurement": "% Inhibition Average", "setting": "TEK [12]", "result": 31, "unit": "%"}, {"measurement": "% Inhibition Duplicate #1", "setting": "TEK [12]", "result": 29, "unit": "%"}, {"measurement": "% Inhibition Duplicate #2", "setting": "TEK [12]", "result": 32, "unit": "%"}, {"measurement": "% Inhibition Duplicate #2", "setting": "TEK [13]", "result": 87, "unit": "%"}, {"measurement": "% Inhibition Duplicate #2", "setting": "TEK [14]", "result": 55, "unit": "%"}, {"measurement": "centrioles' number", "setting": "MON rhabdoid cells [15]; 100nM", "result": "slight increase"}, {"measurement": "centrioles' number", "setting": "MON rhabdoid cells [15]; 500nM", "result": "significant depletion"}, {"measurement": "% Inhibition", "setting": "various kinases [16]", "result": "47% and 51%"}, {"measurement": "% Inhibition", "setting": "various kinases [17]", "result": "24% and 17%"}, {"measurement": "% Inhibition Average", "setting": "various kinases [18]", "result": 19, "unit": "%"}, {"measurement": "% Inhibition Duplicate #1", "setting": "various kinases [18]", "result": 24, "unit": "%"}, {"measurement": "% Inhibition Duplicate #2", "setting": "various kinases [18]", "result": 13, "unit": "%"}, {"measurement": "% Inhibition", "setting": "various kinases [19]", "result": "1% and 2%"}, {"measurement": "% Inhibition", "setting": "various kinases [20]", "result": "72% and 73%"}, {"measurement": "paradoxical effect on centriole number", "setting": "[21]", "result": "not observed"}]}]}
